# Reference: paper PMC8459971, “Evaluation of the hepatotoxicity of the novel GPR40 (FFAR1) agonist CPL207280 in the rat and monkey” (PLoS ONE, 2021)
# Where “and” joins values, the source holds several entries; their conditions need not be identical. Equal entries are not always repeated. Where two headings read alike, the source gives them in different places.
# What was measured:
# [1] = Stability in cryopreserved hepatocytes, monkey; type: in vitro ADME; details: for Compound Remaining (% of 0 min): Hepatocyte Stability Monkey, single replicates
# Protocol: (§1) The final incubation volume was 500 μL. Two control compounds (verapamil and donepezil) were included for each microsomal species, along with the appropriate vehicle control. The reactions were terminated by transferring 50 μL of incubate to 100 μL methanol containing an internal standard (metoprolol) at appropriate time points (0, 10, 20, 40, 60, and 120 min for the test compound and 0, 5, 10, 20, 40, and 60 min for the control compounds). The termination plates were centrifuged at 4000 x g at 4°C for 30 min to precipitate the protein. The supernatants were then collected for analysis, and LC-MS/MS was used for detection purposes. The system consisted of an Acquity™ Binary Solvent Manager, Acquity™ 4-position heated column manager, 2777 Ultra High Pressure Autosampler, and a Xevo-TQ MS triple quadrupole mass spectrometer (Waters Ltd., Herts, UK). This process was carried out twice.
# [2] = Stability in microsomes, rat; type: in vitro ADME; details: for half-life at 3 μM / microsomal CLint at 3 μM: Rat (Sprague Dawley) microsomes, mean n = 2; for average DEG [%]: rat microsomes, with cofactors
# Protocol: as §1
# [3] = Stability in cryopreserved hepatocytes, dog; type: in vitro ADME; details: for Compound Remaining (% of 0 min): Hepatocyte Stability Dog, single replicates
# Protocol: as §1
# [4] = Metabolite profiling, monkey hepatocytes; type: in vitro ADME; details: 10 μM CPL207280, 60 min, ND = not detected
# Protocol: Suspensions of cryopreserved human, rat, and monkey hepatocytes were pooled from a minimum of three individuals. All cryopreserved hepatocytes were purchased from a commercial supplier. […] The cell density was 0.5 ×10^6 viable cells/mL. The final DMSO concentration during the incubation was 0.25%. Control incubations were performed in lysed cells to reveal any non-enzymatic degradation. Two control compounds were identified in each species. Samples (50 μL) were removed from the incubation mixture at 0, 10, 20, 40, 60, and 120 min and added to methanol containing an internal standard (100 μL) to stop the reaction. The samples were centrifuged (4000 x g at 4°C for 30 min) and the supernatants at each time point were pooled for analysis by LC MS/MS using Cyprotex generic methods. Following hepatocyte stability assays, the samples were utilized for metabolite profiling. […] Metabolites were characterized using a mass spectrometer comprising Waters Xevo QT of G2-S, Acquity Binary Solvent Manager, Acquity Column Manager, and 2777 Autosampler.
# [5] = Stability in cryopreserved hepatocytes, rat; type: in vitro ADME; details: for Compound Remaining (% of 0 min): Hepatocyte Stability Rat, single replicates
# Protocol: as §1
# OAT1 = target: T1, OAT1 (Homo sapiens, UniProt Q4U2R8); test: Uptake transporter inhibition assay, OAT1; details: for Accumulation (counts per minute; CPM) HEK293FT-MOCK / Accumulation (counts per minute; CPM) HEK293FT-OAT1: OAT1;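 further: HEK293FT cells expressing OAT1 or mock, uptake of radiolabeled probe substrate at 37 °C in HBSS pH 7.4 with test compound or solvent, cell lysate read by liquid scintillation counting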
# T1 sequence (Q4U2R8 1-563): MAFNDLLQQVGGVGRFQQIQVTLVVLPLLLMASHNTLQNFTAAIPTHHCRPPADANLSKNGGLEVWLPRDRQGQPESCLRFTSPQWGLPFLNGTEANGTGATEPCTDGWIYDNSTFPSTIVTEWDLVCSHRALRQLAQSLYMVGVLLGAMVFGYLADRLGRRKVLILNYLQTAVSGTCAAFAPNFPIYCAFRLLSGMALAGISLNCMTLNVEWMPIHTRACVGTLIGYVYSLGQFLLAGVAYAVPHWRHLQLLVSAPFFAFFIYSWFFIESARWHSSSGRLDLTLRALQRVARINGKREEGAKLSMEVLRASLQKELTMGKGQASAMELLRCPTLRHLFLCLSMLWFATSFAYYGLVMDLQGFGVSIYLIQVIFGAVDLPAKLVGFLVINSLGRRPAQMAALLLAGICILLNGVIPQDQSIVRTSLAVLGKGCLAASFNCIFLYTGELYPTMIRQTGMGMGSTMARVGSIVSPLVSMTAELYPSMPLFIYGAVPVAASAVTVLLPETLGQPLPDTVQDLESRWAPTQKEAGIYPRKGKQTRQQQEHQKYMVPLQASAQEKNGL
# Protocol: For the uptake transporter inhibition assay, cells were washed twice with 100 μL of the appropriate buffer (HK, pH 7.4) for OATP1B1, followed by HBSS (pH 7.4) for (NTCP, OAT1, OAT2v1, OATP1A2, and OATP1B3). Uptake experiments were carried out at 37 ± 1°C in 50 μL of the respective buffer containing the probe substrate and the compound or solvent. […] After the experiment, cells were washed twice with 100 μL of cold appropriate buffer and lysed with 50 μL of 0.1 M NaOH. Radiolabeled probe substrate transport was determined by measuring an aliquot (35 μL) from each well for liquid scintillation counting.
# [6] = 600 mg/kg for 14 days; cited from earlier work
# hepatocytes = details: read-out: IC50, hepatocyte toxicity, cited from earlier work
# NTCP = target: T2, NTCP (Homo sapiens, UniProt Q14973); details: read-out: Inhibition of NTCP, previously reported IC50; cited from earlier work
# T2 construct: expressed in transfected cells; host or cells: HEK cells
# T2 sequence (Q14973 1-349): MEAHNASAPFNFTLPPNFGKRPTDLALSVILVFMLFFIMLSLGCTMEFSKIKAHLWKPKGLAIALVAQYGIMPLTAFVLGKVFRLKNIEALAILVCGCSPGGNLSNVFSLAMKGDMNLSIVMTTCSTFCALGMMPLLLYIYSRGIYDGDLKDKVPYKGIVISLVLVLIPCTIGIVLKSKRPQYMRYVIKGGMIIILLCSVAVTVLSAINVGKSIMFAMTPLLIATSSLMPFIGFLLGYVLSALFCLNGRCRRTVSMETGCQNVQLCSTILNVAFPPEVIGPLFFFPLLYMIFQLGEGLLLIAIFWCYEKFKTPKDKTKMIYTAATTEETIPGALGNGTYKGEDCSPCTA
# [7] = cited from earlier work
# [8] = cryopreserved hepatocytes (suspension), Monkey (Cynomolgus) hepatocytes, mean n = 2
# [9] = cryopreserved hepatocytes (suspension), Dog (Beagle) hepatocytes, mean n = 2
# [10] = cryopreserved hepatocytes (suspension), Rat (Sprague Dawley) hepatocytes, mean n = 2
smiles,measurement,setting,value
CC#C[C@@H](CC(=O)O)c1ccc(OCC(C)=C(C)C)cc1 [CPL207280],Compound Remaining (% of 0 min),[1]; 0 min,100 % of 0 min
same,Compound Remaining (% of 0 min),[1]; 10 min,65.3 % of 0 min and 63.2 % of 0 min
same,Compound Remaining (% of 0 min),[1]; 20 min,38.4 % of 0 min and 39.7 % of 0 min
same,Compound Remaining (% of 0 min),[1]; 40 min,17.5 % of 0 min and 19.5 % of 0 min
same,Compound Remaining (% of 0 min),[1]; 60 min,8.86 % of 0 min and 11.4 % of 0 min
same,Compound Remaining (% of 0 min),[1]; 120 min,8.94 % of 0 min and 8.99 % of 0 min
same,half-life at 3 μM,[1]; [8],17 min
same,microsomal CLint at 3 μM,[1]; [8],81.4 µL/min/mg
same,half-life at 3 μM,[2],69 min
same,microsomal CLint at 3 μM,[2],21.1 µL/min/mg
same,average DEG [%],[2]; 0 min,100.0%
same,average DEG [%],[2]; 20 min,80.9%
same,average DEG [%],[2]; 40 min,64.9%
same,average DEG [%],[2]; 60 min,55.0%
same,Compound Remaining (% of 0 min),[3]; 0 min,100 % of 0 min
same,Compound Remaining (% of 0 min),[3]; 10 min,93.0 % of 0 min and 92.9 % of 0 min
same,Compound Remaining (% of 0 min),[3]; 20 min,83.6 % of 0 min and 74.9 % of 0 min
same,Compound Remaining (% of 0 min),[3]; 40 min,73.0 % of 0 min and 74.7 % of 0 min
same,Compound Remaining (% of 0 min),[3]; 60 min,61.1 % of 0 min and 62.8 % of 0 min
same,Compound Remaining (% of 0 min),[3]; 120 min,65.2 % of 0 min and 60.1 % of 0 min
same,half-life at 3 μM,[3]; [9],180 min
same,microsomal CLint at 3 μM,[3]; [9],7.76 µL/min/mg
same,monkey % of parent at 60 min,[4],7.25%
same,Compound Remaining (% of 0 min),[5]; 0 min,100 % of 0 min
same,Compound Remaining (% of 0 min),[5]; 10 min,101 % of 0 min and 81.5 % of 0 min
same,Compound Remaining (% of 0 min),[5]; 20 min,79.0 % of 0 min and 77.8 % of 0 min
same,Compound Remaining (% of 0 min),[5]; 40 min,77.7 % of 0 min and 66.7 % of 0 min
same,Compound Remaining (% of 0 min),[5]; 60 min,72.8 % of 0 min and 73.3 % of 0 min
same,Compound Remaining (% of 0 min),[5]; 120 min,65.3 % of 0 min and 56.0 % of 0 min
same,half-life at 3 μM,[5]; [10],186 min
same,microsomal CLint at 3 μM,[5]; [10],7.51 µL/min/mg
same,IC50,OAT1,245 µM
same,"fold less inhibitory potency than TAK-875, OAT1",OAT1,at least 10 fold
same,Accumulation (counts per minute; CPM) HEK293FT-MOCK,OAT1; conc 0.10 µM,50 CPM and 53 CPM
same,Accumulation (counts per minute; CPM) HEK293FT-OAT1,OAT1; conc 0.10 µM,3966 CPM and 4397 CPM
same,Accumulation (counts per minute; CPM) HEK293FT-MOCK,OAT1; conc 1.00 µM,48 CPM and 53 CPM
same,Accumulation (counts per minute; CPM) HEK293FT-OAT1,OAT1; conc 1.00 µM,3796 CPM and 3875 CPM
same,Accumulation (counts per minute; CPM) HEK293FT-MOCK,OAT1; conc 3.00 µM,43 CPM
same,Accumulation (counts per minute; CPM) HEK293FT-OAT1,OAT1; conc 3.00 µM,3567 CPM and 3805 CPM
same,Accumulation (counts per minute; CPM) HEK293FT-OAT1,OAT1; conc 10.00 µM,3588 CPM and 3708 CPM
same,Accumulation (counts per minute; CPM) HEK293FT-MOCK,OAT1; conc 30.00 µM,36 CPM and 51 CPM
same,Accumulation (counts per minute; CPM) HEK293FT-OAT1,OAT1; conc 30.00 µM,3509 CPM and 3520 CPM
same,Accumulation (counts per minute; CPM) HEK293FT-MOCK,OAT1; conc 100.00 µM,35 CPM and 46 CPM
same,Accumulation (counts per minute; CPM) HEK293FT-OAT1,OAT1; conc 100.00 µM,2841 CPM and 2828 CPM
same,Accumulation (counts per minute; CPM) HEK293FT-MOCK,OAT1; conc 300.00 µM,36 CPM and 54 CPM
same,Accumulation (counts per minute; CPM) HEK293FT-OAT1,OAT1; conc 300.00 µM,1655 CPM and 1827 CPM
"Cc1cc(OCCCS(C)(=O)=O)cc(C)c1-c1cccc(COc2ccc3c(c2)OC[C@H]3CC(=O)O)c1 [TAK-875, fasiglifam, reference compound]","effect on ALT, TBA, T-BIL in dogs",[6],observed in only 2 of 6 animals
same,IC50,hepatocytes; time of incubation 24 h,68 µM
same,IC50,hepatocytes; time of incubation 48 h,56 µM
same,IC50,NTCP,4.6 µM
same,half-life at 3 μM,[2],119 min
same,microsomal CLint at 3 μM,[2],11.6 µL/min/mg
same,average DEG [%],[2]; 0 min,100.0%
same,average DEG [%],[2]; 20 min,81.3%
same,average DEG [%],[2]; 40 min,79.5%
same,average DEG [%],[2]; 60 min,68.4%
same,long exposure in humans,[7],approximately 30 h
same,IC50,OAT1,34.8 µM
same,Accumulation (counts per minute; CPM) HEK293FT-MOCK,OAT1; conc 0.10 µM,34 CPM and 47 CPM
same,Accumulation (counts per minute; CPM) HEK293FT-OAT1,OAT1; conc 0.10 µM,3883 CPM and 3843 CPM
same,Accumulation (counts per minute; CPM) HEK293FT-MOCK,OAT1; conc 0.30 µM,36 CPM and 29 CPM
same,Accumulation (counts per minute; CPM) HEK293FT-OAT1,OAT1; conc 0.30 µM,3654 CPM and 3608 CPM
same,Accumulation (counts per minute; CPM) HEK293FT-MOCK,OAT1; conc 1.00 µM,32 CPM and 37 CPM
same,Accumulation (counts per minute; CPM) HEK293FT-OAT1,OAT1; conc 1.00 µM,3568 CPM and 3527 CPM
same,Accumulation (counts per minute; CPM) HEK293FT-MOCK,OAT1; conc 3.00 µM,36 CPM and 37 CPM
same,Accumulation (counts per minute; CPM) HEK293FT-OAT1,OAT1; conc 3.00 µM,3226 CPM and 3417 CPM
same,Accumulation (counts per minute; CPM) HEK293FT-MOCK,OAT1; conc 10.00 µM,34 CPM and 39 CPM
same,Accumulation (counts per minute; CPM) HEK293FT-OAT1,OAT1; conc 10.00 µM,3074 CPM and 3122 CPM
same,Accumulation (counts per minute; CPM) HEK293FT-MOCK,OAT1; conc 30.00 µM,36 CPM and 39 CPM
same,Accumulation (counts per minute; CPM) HEK293FT-OAT1,OAT1; conc 30.00 µM,1739 CPM and 1807 CPM
same,Accumulation (counts per minute; CPM) HEK293FT-MOCK,OAT1; conc 100.00 µM,33 CPM and 31 CPM
same,Accumulation (counts per minute; CPM) HEK293FT-OAT1,OAT1; conc 100.00 µM,496 CPM and 493 CPM
